Columns and labels:
[1] = test system: ABUTH (Abutilon theophrasti); assay: Postemergence herbicidal evaluation; format: in vivo, Medic.
Procedure, shortened: (§1)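 Seedlings grown for about two weeks were sprayed postemergence and then kept under standard greenhouse care. Injury was rated visually 4–5 weeks after treatment on a 0–9 scale against untreated controls, and ratings from repeat tests were averaged.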

[2] = test system: AMBEL (Ambrosia artemisifolia); assay: Postemergence herbicidal evaluation; format: in vivo, L.
Procedure, shortened: as §1

[3] = test system: CASOB (Cassia obtusifolia); assay: Postemergence herbicidal evaluation; format: in vivo, L.
Procedure, shortened: as §1

[4] = test system: CHEAL (Chenopodium album); assay: Postemergence herbicidal evaluation; format: in vivo, L.
Procedure, shortened: as §1

GALAP (Galium aparine) = assay: Postemergence herbicidal evaluation; format: in vivo
Procedure, shortened: as §1

[5] = test system: IPOHE (Ipomoea hederacea); assay: Postemergence herbicidal evaluation; format: in vivo, (L.) Jacq.
Procedure, shortened: as §1

[6] = test system: ECHCG (Echinochloa crus-galli); assay: Postemergence herbicidal evaluation; format: in vivo, (L.) Beau
Procedure, shortened: as §1

[7] = test system: GLXMAW (Soybean, Williams); assay: Postemergence herbicidal evaluation; format: in vivo, Glycine max, (L.) Merr. cv Williams
Procedure, shortened: as §1

ZEAMX (Corn, Field) [8] = assay: Postemergence herbicidal evaluation; format: in vivo, Zea mays, L.
Procedure, shortened: as §1

[9] = test system: AMBEL (Ambrosia artemisifolia); assay: Preemergence herbicidal evaluation; format: in vivo, L.; settings: rated 4-5 weeks after treatment
Procedure, shortened: (§2)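 Each species was sown separately in potting soil over roughly one inch of soil, and the surface sprayed with compound dissolved in aqueous acetone. Assessment used a 0–9 visual scale against a control after four to five weeks.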

[10] = test system: CASOB (Cassia obtusifolia); assay: Preemergence herbicidal evaluation; format: in vivo, L.; settings: rated 4-5 weeks after treatment
Procedure, shortened: as §2

[11] = test system: CHEAL (Chenopodium album); assay: Preemergence herbicidal evaluation; format: in vivo, L.; settings: rated 4-5 weeks after treatment
Procedure, shortened: as §2

[12] = test system: IPOHE (Ipomoea hederacea); assay: Preemergence herbicidal evaluation; format: in vivo, (L.) Jacq.; settings: rated 4-5 weeks after treatment
[13] = test system: GLXMAW (Soybean, Williams); assay: Preemergence herbicidal evaluation; format: in vivo, Glycine max, (L.) Merr. cv Williams; settings: rated 4-5 weeks after treatment
ORYSAT (Rice, Tebonnet) = assay: Preemergence herbicidal evaluation; format: in vivo, Oryza sativa, (L.) Tebonnet; settings: rated 4-5 weeks after treatment
[14] = test system: TRZAWR (Wheat, Winter, cv Riband); assay: Preemergence herbicidal evaluation; format: in vivo, Triticum aestivum; settings: rated 4-5 weeks after treatment
Procedure, shortened: as §2

ZEAMX (Corn, Field) [15] = assay: Preemergence herbicidal evaluation; format: in vivo, Zea mays, L.; settings: rated 4-5 weeks after treatment
[16] = test system: ECHORC (Echinochloa oryzoides); assay: Flooded paddy, preemergence weed control; format: in vivo, Echinochloa oryzoides (Ard.) Fritsch.; settings: rated 3-4 weeks after treatment, 0-9 rating scale
Procedure, shortened: (§3)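 Scoring used a 0-9 visual scale relative to control. Before that, seeds or propagules were planted shallowly in silt loam and flooded to 1.5–3 cm, a depth maintained throughout, with greenhouse care during the test.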

CYPIR (Cyperus iria) = assay: Flooded paddy, preemergence weed control; format: in vivo; settings: rated 3-4 weeks after treatment, 0-9 rating scale
Procedure, shortened: as §3

[17] = test system: CYPSE (Cyperus serotinus); assay: Flooded paddy, preemergence weed control; format: in vivo, Rottb.; settings: rated 3-4 weeks after treatment, 0-9 rating scale
Procedure, shortened: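 Herbicidal effect was scored visually on a 0–9 scale against an untreated control 3–4 weeks after treatment. Compounds were applied preemergence as 50/50 v/v aqueous/acetone mixtures into flood water (1.5–3 cm deep over silt loam), at roughly 0.0080 to 0.1250 kg/ha active ingredient.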

[18] = test system: SAGPY (Sagittaria pygmaea); assay: Flooded paddy, preemergence weed control; format: in vivo, L.; settings: rated 3-4 weeks after treatment, 0-9 rating scale
Procedure, shortened: as §3

`C[C@@H]1OC(c2nsc3ccc(-n4c(=O)cc(C(F)(F)F)n(C)c4=O)cc23)O[C@@H]1C` (stereo partly drawn) [Compound 47, 3-[3-[(4R,5S)-4,5-dimethyl-1,3-dioxolan-2-yl]-1,2-benzisothiazol-5-yl]-1-methyl-6-(trifluoromethyl)uracil] was tested. Which “Postemergence herbicidal rating, ABUTH” value ([1]; rate 0.0320 kg/ha) did it give?
The value was 9.0.

And the “Postemergence herbicidal rating, ABUTH” value ([1]; rate 0.0620 kg/ha)?
The value was 9.0.

And the “Postemergence herbicidal rating, AMBEL” value ([2]; rate 0.0320 kg/ha)?
The value was 9.0.

What about the “Postemergence herbicidal rating, AMBEL” value ([2]; rate 0.0620 kg/ha) of the same molecule?
The value was 9.0.

What about the “Postemergence herbicidal rating, CASOB” value ([3]; rate 0.0320 kg/ha) of the same molecule?
Its value is 6.0.

And the “Postemergence herbicidal rating, CASOB” value ([3]; rate 0.0620 kg/ha)?
The value was 9.0.

And the “Postemergence herbicidal rating, CHEAL” value ([4]; rate 0.0320 kg/ha)?
The value was 9.0.

And the “Postemergence herbicidal rating, CHEAL” value ([4]; rate 0.0620 kg/ha)?
The value was 9.0.

And the “Postemergence herbicidal rating, GALAP” value (GALAP (Galium aparine); rate 0.0320 kg/ha)?
The value was 9.0.

What about the “Postemergence herbicidal rating, GALAP” value (GALAP (Galium aparine); rate 0.0620 kg/ha) of the same molecule?
The value was 9.0.

What about the “Postemergence herbicidal rating, IPOHE” value ([5]; rate 0.0320 kg/ha) of the same molecule?
The value was 9.0.

What about the “Postemergence herbicidal rating, IPOHE” value ([5]; rate 0.0620 kg/ha) of the same molecule?
Its value is 9.0.

What about the “Postemergence herbicidal rating, ECHCG” value ([6]; rate 0.0320 kg/ha) of the same molecule?
The value was 0.0.

And the “Postemergence herbicidal rating, ECHCG” value ([6]; rate 0.0620 kg/ha)?
The value was 3.0.

What about the “Postemergence herbicidal rating, GLXMAW” value ([7]; rate 0.0320 kg/ha) of the same molecule?
Its value is 7.5.

What about the “Postemergence herbicidal rating, GLXMAW” value ([7]; rate 0.0620 kg/ha) of the same molecule?
The value was 8.5.

What about the “Postemergence herbicidal rating, ZEAMX” value (ZEAMX (Corn, Field) [8]; rate 0.0320 kg/ha) of the same molecule?
Its value is 3.5.

What about the “Postemergence herbicidal rating, ZEAMX” value (ZEAMX (Corn, Field) [8]; rate 0.0620 kg/ha) of the same molecule?
The value was 4.0.

What about the “Preemergence herbicidal rating AMBEL” value ([9]; Rate 0.0620 kg/ha) of the same molecule?
The value was 9.0.

And the “Preemergence herbicidal rating AMBEL” value ([9]; Rate 0.1250 kg/ha)?
Its value is 9.0.

And the “Preemergence herbicidal rating AMBEL” value ([9]; Rate 0.2500 kg/ha)?
The value was 9.0.

What about the “Preemergence herbicidal rating CASOB” value ([10]; Rate 0.0620 kg/ha) of the same molecule?
The value was 4.5.

And the “Preemergence herbicidal rating CASOB” value ([10]; Rate 0.1250 kg/ha)?
Its value is 7.5.

What about the “Preemergence herbicidal rating CASOB” value ([10]; Rate 0.2500 kg/ha) of the same molecule?
The value was 9.0.

What about the “Preemergence herbicidal rating CHEAL” value ([11]; Rate 0.0620 kg/ha) of the same molecule?
The value was 9.0.

And the “Preemergence herbicidal rating CHEAL” value ([11]; Rate 0.1250 kg/ha)?
Its value is 9.0.

What about the “Preemergence herbicidal rating CHEAL” value ([11]; Rate 0.2500 kg/ha) of the same molecule?
The value was 9.0.

What about the “Preemergence herbicidal rating IPOHE” value ([12]; Rate 0.0620 kg/ha) of the same molecule?
The value was 7.5.

What about the “Preemergence herbicidal rating IPOHE” value ([12]; Rate 0.1250 kg/ha) of the same molecule?
The value was 8.0.

What about the “Preemergence herbicidal rating IPOHE” value ([12]; Rate 0.2500 kg/ha) of the same molecule?
The value was 9.0.

What about the “Preemergence herbicidal rating GLXMAW” value ([13]; Rate 0.0620 kg/ha) of the same molecule?
Its value is 7.0.

What about the “Preemergence herbicidal rating GLXMAW” value ([13]; Rate 0.1250 kg/ha) of the same molecule?
Its value is 8.0.

And the “Preemergence herbicidal rating GLXMAW” value ([13]; Rate 0.2500 kg/ha)?
Its value is 9.0.

What about the “Preemergence herbicidal rating ORYSAT” value (ORYSAT (Rice, Tebonnet); Rate 0.0620 kg/ha) of the same molecule?
The value was 7.5.

And the “Preemergence herbicidal rating ORYSAT” value (ORYSAT (Rice, Tebonnet); Rate 0.1250 kg/ha)?
Its value is 7.5.

What about the “Preemergence herbicidal rating ORYSAT” value (ORYSAT (Rice, Tebonnet); Rate 0.2500 kg/ha) of the same molecule?
Its value is 9.0.

What about the “Preemergence herbicidal rating TRZAWR” value ([14]; Rate 0.0620 kg/ha) of the same molecule?
Its value is 6.0.

What about the “Preemergence herbicidal rating TRZAWR” value ([14]; Rate 0.1250 kg/ha) of the same molecule?
The value was 8.0.

And the “Preemergence herbicidal rating TRZAWR” value ([14]; Rate 0.2500 kg/ha)?
Its value is 8.0.

And the “Preemergence herbicidal rating ZEAMX” value (ZEAMX (Corn, Field) [15]; Rate 0.0620 kg/ha)?
The value was 7.5.

And the “Preemergence herbicidal rating ZEAMX” value (ZEAMX (Corn, Field) [15]; Rate 0.1250 kg/ha)?
Its value is 8.0.

What about the “Preemergence herbicidal rating ZEAMX” value (ZEAMX (Corn, Field) [15]; Rate 0.2500 kg/ha) of the same molecule?
Its value is 9.0.

What about the “herbicidal rating, ECHORC” value ([16]; rate 0.0080 kg/ha) of the same molecule?
Its value is 5.0.

And the “herbicidal rating, ECHORC” value ([16]; rate 0.0320 kg/ha)?
The value was 8.5.

What about the “herbicidal rating, ECHORC” value ([16]; rate 0.1250 kg/ha) of the same molecule?
The value was 9.0.

What about the “herbicidal rating, CYPIR” value (CYPIR (Cyperus iria); rate 0.0080 kg/ha) of the same molecule?
Its value is 0.0.

And the “herbicidal rating, CYPIR” value (CYPIR (Cyperus iria); rate 0.0320 kg/ha)?
The value was 8.5.

And the “herbicidal rating, CYPIR” value (CYPIR (Cyperus iria); rate 0.1250 kg/ha)?
Its value is 9.0.

What about the “herbicidal rating, CYPSE” value ([17]; rate 0.0320 kg/ha) of the same molecule?
The value was 9.0.

And the “herbicidal rating, CYPSE” value ([17]; rate 0.1250 kg/ha)?
The value was 9.0.

What about the “herbicidal rating, SAGPY” value ([18]; rate 0.0080 kg/ha) of the same molecule?
The value was 0.0.

What about the “herbicidal rating, SAGPY” value ([18]; rate 0.0320 kg/ha) of the same molecule?
The value was 7.5.

What about the “herbicidal rating, SAGPY” value ([18]; rate 0.1250 kg/ha) of the same molecule?
The value was 9.0.
